Data from US6685840B2, “Method for determining the dissolution rate of a solid water treatment product” (Ondeo Nalco Company, priority 2002, dated 2004).

Experiment: Dissolution (release) rate of the ingredients of a solid water treatment tablet in standard cooling water
Format: physicochemical
Set-up: key: *: value was below detection limits for this moiety
Source text: After the solid water treatment product has been formed it must be tested to determine its dissolution rate in water. Test water that is formulated to closely match the type of water found in the industrial water system of interest is provided. For example, “standard” test water for cooling water in a cooling tower typically has the following features: 60 ppm Ca^2+, 18 ppm Mg^2+, 134 ppm HCO3^−, 53 ppm Cl^− and 72 ppm SO4^2−. A typical scale formation test for a model or simulation boiler typically has these concentrations of scaling contaminants in the boiler water; 10 ppm Calcium as CaCO3, 5 ppm Magnesium as CaCO3, 5 ppm silica as SiO2. Alkalinity such as caustic (NaOH) is added in sufficient quantity to maintain a pH of typically between 10.0 and 11.0 in the boiler water.
In order to determine the dissolution rate of the solid water treatment product the solid water treatment product is placed in the test water and allowed to dissolve. A fluorometer is provided and the fluorescent signal of the Fluorescent Tracer present in the solid water treatment product is measured using the fluorometer. The fluorescent signal is measured at regular intervals.
A tablet of solid cooling water treatment product of Formulation 1, {27.6% benzotriazole, 70.4% 1-hydroxyethylidene-1,1-diphosphonic acid and 2% 1,3,6,8-pyrenetetrasulfonic acid, sodium salt} is made. The tablet weighs 0.9081 grams. The tablet is placed in standard cooling water {60 ppm Ca^2+, 18 ppm Mg^2+, 134 ppm […] , 53 ppm Cl^31 and 72 ppm SO4^2−} and the dissolution rate of each ingredient in the table is measured. The dissolution rate of each ingredient present is measured using analytical techniques suitable for analyzing for each ingredient. The dissolution rate of the benzotriazole (abbreviated “BZT”) is measured using fluorometric analytical techniques, known in the art of analyzing triazoles. The dissolution rate of 1-hydroxyethylidene-1,1-diphosphonic acid (abbreviated “HEDP”) is measured using standard “colorimetric determination” analytical techniques, known in the art of analyzing for diphosphonic acids. The dissolution rate of the 1,3,6,8-pyrenetetrasulfonic acid, sodium salt (abbreviated “PTSA”) is measured using fluorometric analytical techniques.
The results of this test are shown in Table 1 Release rates for each ingredient are given in milligrams (‘mg”) per minute (“min.”).
The same tablet was made as was made in Example 1, except that this time, the tablet was coated with a polyethylene oxide material with a molecular weight of approximately 15,000 such that the final weight of finished tablet was 1.411 grams. The dissolution rate of the three ingredients in this tablet were determined, using the same analytical techniques as in Example 1.

[1] = Example 1 uncoated tablet of Formulation 1 (0.9081 g), standard cooling water, time 0 minutes
[2] = Example 1 uncoated tablet of Formulation 1, standard cooling water, time 1 minutes
[3] = Example 1 uncoated tablet of Formulation 1, standard cooling water, time 5 minutes
[4] = Example 1 uncoated tablet of Formulation 1, standard cooling water, time 10 minutes
[5] = Example 1 uncoated tablet of Formulation 1, standard cooling water, time 15 minutes
[6] = Example 1 uncoated tablet of Formulation 1, standard cooling water, time 30 minutes
[7] = Example 1 uncoated tablet of Formulation 1, standard cooling water, time 60 minutes
[8] = Example 1 uncoated tablet of Formulation 1, standard cooling water, time 130 minutes
[9] = Example 2 tablet coated with polyethylene oxide (1.411 g), time 0 minutes
[10] = Example 2 tablet coated with polyethylene oxide, time 5 minutes
[11] = Example 2 tablet coated with polyethylene oxide, time 15 minutes
[12] = Example 2 tablet coated with polyethylene oxide, time 30 minutes
[13] = Example 2 tablet coated with polyethylene oxide, time 40 minutes
[14] = Example 2 tablet coated with polyethylene oxide, time 50 minutes
[15] = Example 2 tablet coated with polyethylene oxide, time 61 minutes, in mg/min
[16] = Example 2 tablet coated with polyethylene oxide, time 75 minutes, in mg/min
[17] = Example 2 tablet coated with polyethylene oxide, time 180 minutes, in mg/min
[18] = Example 2 tablet coated with polyethylene oxide, time 110 minutes, in mg/min

| Release Rate [1] | Release Rate [2] | Release Rate [3] [mg per min.] | Release Rate [4] [mg per min.] | Release Rate [5] [mg per min.] | Release Rate [6] [mg per min.] | Release Rate [7] | Release Rate [8] | Release Rate [9] | Release Rate [10] | Release Rate [11] | Release Rate [12] | Release Rate [13] [mg/min] | Release Rate [14] [mg/min] | Release Rate [15] | Release Rate [16] | Release Rate [17] | Compound | Release Rate [18] | also measured |
| --- | --- | --- | --- | --- | --- | --- | --- | --- | --- | --- | --- | --- | --- | --- | --- | --- | --- | --- | --- |
| * | * | 10.5 | 20 | 11.4 | 0.933 | 1.03 mg per min. | 0.0143 mg per min. | * | * | * | * | 1.2 | 2.55 | 8.091 | 4.893 | 0.329 | CC(O)(P(=O)(O)O)P(=O)(O)O [HEDP, 1-hydroxyethylidene-1,1-diphosphonic acid] | – | Release Rate (Example 2 tablet coated with polyethylene oxide, time 110 minutes): 1.7 mg/min |
| * | * | 8.75 | 13.8 | 11.4 | 2.167 | 0.5 mg per min. | 0.493 mg per min. | * | * | * | * | 0.2 | 2.6 | 5.545 | 4.393 | 0.236 | c1ccc2[nH]nnc2c1 [BZT, benzotriazole] | 0.829 | – |

| Compound | Release Rate [1] | Release Rate [2] | Release Rate [3] [mg per min.] | Release Rate [4] [mg per min.] | Release Rate [5] [mg per min.] | Release Rate [6] [mg per min.] | Release Rate [7] | Release Rate [8] | Release Rate [9] | Release Rate [10] | Release Rate [11] | Release Rate [12] | Release Rate [13] [mg/min] | Release Rate [14] [mg/min] | Release Rate [15] | Release Rate [16] | Release Rate [17] | Release Rate [18] | also measured |
| --- | --- | --- | --- | --- | --- | --- | --- | --- | --- | --- | --- | --- | --- | --- | --- | --- | --- | --- | --- |
| O=S(=O)([O-])c1cc(S(=O)(=O)[O-])c2ccc3c(S(=O)(=O)[O-])cc(S(=O)(=O)[O-])c4ccc1c2c43.[Na+].[Na+].[Na+].[Na+] [PTSA, 1,3,6,8-pyrenetetrasulfonic acid, sodium salt] | * | * | 0.5925 | 0.98 | 0.5 | 0.143 | * | * | * | * | * | * | – | – | – | 0.190 | 0.00493 | 0.0571 | Release Rate (Example 2 tablet coated with polyethylene oxide, time 40 minutes, in mg/min): 0.052; Release Rate (Example 2 tablet coated with polyethylene oxide, time 50 minutes, in mg/min): 0.121; Release Rate (Example 2 tablet coated with polyethylene oxide, time 61 minutes): 0.33 mg/min |
